Test results reported in the supplement of paper PMC11451515.

Test system: NOMO1
Test: cell viability relative to DMSO control; higher = less cytotoxic
Conditions: 48 h
How it was run: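 Viability is expressed as a percentage of DMSO wells within each plate, and cell-free wells serve as background. Seeding densities in the 1536-well plates (5 μl) were 500 cells/well for NOMO1 or SEM leukemia cells and 1000 cells/well for P12-Ichikawa. Each line was adapted for at least four passages in each medium. Library compounds in DMSO were pin-dosed at 47 μM to 0.79 nM (11 points, threefold), and CellTiter-Glo One luminescence was read after 48 h at 37°C.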

[1] = HPLM + 10% dialyzed FBS, 0.000781 µM
[2] = HPLM + 10% dialyzed FBS, 0.00234 µM
[3] = HPLM + 10% dialyzed FBS, 0.00702 µM
[4] = HPLM + 10% dialyzed FBS, 0.0211 µM
[5] = HPLM + 10% dialyzed FBS, 0.0632 µM
[6] = HPLM + 10% dialyzed FBS, 0.19 µM
[7] = HPLM + 10% dialyzed FBS, 0.569 µM
[8] = HPLM + 10% dialyzed FBS, 1.71 µM
[9] = HPLM + 10% dialyzed FBS, 5.12 µM
[10] = HPLM + 10% dialyzed FBS, 15.4 µM
[11] = HPLM + 10% dialyzed FBS, 46.1 µM
[12] = RPMI 5 mM glucose + 10% FBS, 0.000781 µM
[13] = RPMI 5 mM glucose + 10% FBS, 0.00234 µM
[14] = RPMI 5 mM glucose + 10% FBS, 0.00702 µM
[15] = RPMI 5 mM glucose + 10% FBS, 0.0211 µM
[16] = RPMI 5 mM glucose + 10% FBS, 0.0632 µM
[17] = RPMI 5 mM glucose + 10% FBS, 0.19 µM
[18] = RPMI 5 mM glucose + 10% FBS, 0.569 µM
[19] = RPMI 5 mM glucose + 10% FBS, 1.71 µM
[20] = RPMI 5 mM glucose + 10% FBS, 5.12 µM
[21] = RPMI 5 mM glucose + 10% FBS, 15.4 µM
[22] = RPMI 5 mM glucose + 10% FBS, 46.1 µM
[23] = RPMI 5 mM glucose + 10% dialyzed FBS, 0.000781 µM
[24] = RPMI 5 mM glucose + 10% dialyzed FBS, 0.00234 µM
[25] = RPMI 5 mM glucose + 10% dialyzed FBS, 0.00702 µM
[26] = RPMI 5 mM glucose + 10% dialyzed FBS, 0.0211 µM
[27] = RPMI 5 mM glucose + 10% dialyzed FBS, 0.0632 µM
[28] = RPMI 5 mM glucose + 10% dialyzed FBS, 0.19 µM
[29] = RPMI 5 mM glucose + 10% dialyzed FBS, 0.569 µM
[30] = RPMI 5 mM glucose + 10% dialyzed FBS, 1.71 µM
[31] = RPMI 5 mM glucose + 10% dialyzed FBS, 5.12 µM
[32] = RPMI 5 mM glucose + 10% dialyzed FBS, 15.4 µM
[33] = RPMI 5 mM glucose + 10% dialyzed FBS, 46.1 µM

Structure (SMILES)	cell viability [1] [%]	cell viability [2] [%]	cell viability [3] [%]	cell viability [4] [%]	cell viability [5] [%]	cell viability [6] [%]	cell viability [7] [%]	cell viability [8] [%]	cell viability [9] [%]	cell viability [10] [%]	cell viability [11] [%]	cell viability [12] [%]	cell viability [13] [%]	cell viability [14] [%]	cell viability [15] [%]	cell viability [16] [%]	cell viability [17] [%]	cell viability [18] [%]	cell viability [19] [%]	cell viability [20] [%]	cell viability [21] [%]	cell viability [22] [%]	cell viability [23] [%]	cell viability [24] [%]	cell viability [25] [%]	cell viability [26] [%]	cell viability [27] [%]	cell viability [28] [%]	cell viability [29] [%]	cell viability [30] [%]	cell viability [31] [%]	cell viability [32] [%]	cell viability [33] [%]
Cc1ccc(C(=O)Nc2cccc(C(F)(F)F)c2)cc1Nc1nc(-c2cccnc2)nc2c1cnn2C	87.4	80.6	97.4	97.6	88.4	104	74	56.5	71.2	67.8	78	83.5	84.8	94.5	77.4	85.1	87.4	77.6	84.9	87.7	73.4	76.4	84.8	86.2	87.6	87.2	90.7	89.1	83.7	77.4	93.8	77.6	85.3
CC(C)C1CCC(C(=O)N[C@H](Cc2ccccc2)C(=O)O)CC1 (stereo not given in full)	87.3	100	75.4	90.4	89.9	84.5	81.4	88.6	78	76.4	91.4	93.5	88.5	91.8	89.7	92.2	91.6	85.1	80.7	84.2	81.4	84.6	92.2	96.9	98.9	94.4	92	94.8	100	82.6	101	82.8	92.3
C[C@]12CCC3c4ccc(O)cc4CCC3C1CCC2=O (stereo not given in full)	102	102	106	103	107	91.9	86.2	81.6	93	78.2	79.9	92.2	91.7	92.3	85.7	87.7	88.2	92.4	90.8	96.1	76	79.6	82.1	90.5	91.7	92.8	96.4	86.5	86.1	84.4	89	88.6	81.1
CC(C(C)N1CC(=O)NC(=O)C1)N1CC(=O)NC(=O)C1 (stereo not given)																							110	121	139	133	127	123	139	135	130	124	106
NC(=O)c1cccc(-c2cc(Nc3ccc(OC(F)(F)F)cc3)ncn2)c1	88.6	99.5	96	93.9	108	101	97.2	94.1	103	84.5	81.4	85.8	91	93.4	95.7	90	103	103	85.8	90.3	84.1	80.5	91.7	94.7	84.3	86.1	93.3	92.8	88.2	89.1	94.2	79.6	91.7
CCNC(=O)CCC/C=C\C[C@@H]1[C@@H](/C=C/C(O)CCc2ccccc2)[C@@H](O)C[C@@H]1O (stereo not given in full)	104	108	106	131	112	130	103	116	105	110	39.5	116	118	124	106	108	105	113	120	118	102	38	113	121	106	116	114	105	120	105	118	111	32.3
O=C1NC(=O)/C(=C/c2ccc3nccnc3c2)S1	108	124	116	118	106	118	113	125	102	95.9	89.3	98.4	130	109	107	101	105	111	100	97.1	86.6	103	118	109	132	110	111	118	103	106	92.6	88.8	95.3
CO[C@@H](C(=O)N1Cc2[nH]nc(NC(=O)c3ccc(N4CCN(C)CC4)cc3)c2C1)c1ccccc1	88	93.2	102	94.2	72.2	62.2	58.6	53.3	54.1	66.8	71.7	80.4	79.4	79.7	83.2	81.5	64.4	51.5	50.9	55.8	53.4	56.3	83.7	87.2	88.5	88.7	71.9	52.5	59.3	47.4	48.9	55.3	54.3
CC1(C)SCCN([S+](=O)([O-])c2ccc(OCC#CCO)cc2)[C@H]1C(=O)NO	121	108	102	101	124	126	115	112	99.6	107	83.7	105	88.3	99.4	95.8	104	93	93.9	87.5	77.5	77.4	82.4	96.3	94.8	103	90.2	89.7	98.5	84.1	94.3	97.3	95.6	93.3
CN(C)C/C=C/C(=O)Nc1ccc(C(=O)Nc2cccc(Nc3ncc(Cl)c(-c4c[nH]c5ccccc45)n3)c2)cc1	78.8	99.4	101	94.6	88.4	85.2	5.25	4.49	4.42	3.89	3.78	81.9	91.4	84.4	93.8	93.5	98.7	5.96	4.95	4.62	3.68	3.47	80	87.7	91.2	94.7	95	73.9	3.8	3.8	3.2	2.9	3.15
CCCCCNC(=N)N/N=C/c1c[nH]c2ccc(OC)cc12	123	121	134	132	137	135	147	137	132	71.7	48.8	122	122	142	131	145	155	141	129	134	93.4	26.7											
NC(=O)c1cnccn1	105	120	147	133	140	140	143	141	145	126	148																						
CCc1ccc(OCc2ccccc2C(=O)Nc2ccc3nc(C)cc(N)c3c2)cc1	92.1	107	105	117	115	118	127	114	15.3	6.13	4.55	103	108	105	108	110	116	112	113	112	7.05	4.22	109	108	116	117	116	130	124	115	111	6.5	4.65
CCC(C)CCCCC(=O)N[C@@H](CCN)C(=O)NC(C(=O)N[C@H](CCN)C(=O)N[C@@H]1CCNC(=O)C([C@@H](C)O)NC(=O)[C@@H](CCN)NC(=O)[C@@H](CCN)NC(=O)[C@@H](CC(C)C)NC(=O)[C@H](Cc2ccccc2)NC(=O)[C@H](CCN)NC1=O)[C@@H](C)O (stereo not given in full)	118	110	113	112	123	133	137	119	124	127	125	102	125	109	108	112	120	118	130	130	126	115	113	121	134	130	131	131	137	134	124	135	123
c1cc(-c2cnn3cc(-c4ccc(OCCN5CCCCC5)cc4)cnc23)ccn1	95.4	83.7	101	87.5	83.1	88.8	88.6	67.2	76.1	72.8	30.5	83.1	88.8	87.4	81.2	83.9	83.4	80.6	80.9	80.4	85.9	80.2	80.1	84.5	82.6	86.9	89.5	86.5	79.6	84	78.3	80.9	74
